Measured values reported in patent US20260108527A1, “POLO LIKE KINASE 4 INHIBITORS” (ORIC Pharmaceuticals, Inc., priority 2022, published 2026).

Experiments:
human recombinant PLK4 = target: T1, human recombinant PLK4 (Homo sapiens, UniProt O00444); test: PLK4 Biochemical Assay (ADP-Glo); details: 0.5 nM PLK4, 8.0 μM ATP, 4.7 μM MBP, 6 hours at RT
T1 construct: purchased ThermoFisher PV6396
T1 sequence (O00444 1-970): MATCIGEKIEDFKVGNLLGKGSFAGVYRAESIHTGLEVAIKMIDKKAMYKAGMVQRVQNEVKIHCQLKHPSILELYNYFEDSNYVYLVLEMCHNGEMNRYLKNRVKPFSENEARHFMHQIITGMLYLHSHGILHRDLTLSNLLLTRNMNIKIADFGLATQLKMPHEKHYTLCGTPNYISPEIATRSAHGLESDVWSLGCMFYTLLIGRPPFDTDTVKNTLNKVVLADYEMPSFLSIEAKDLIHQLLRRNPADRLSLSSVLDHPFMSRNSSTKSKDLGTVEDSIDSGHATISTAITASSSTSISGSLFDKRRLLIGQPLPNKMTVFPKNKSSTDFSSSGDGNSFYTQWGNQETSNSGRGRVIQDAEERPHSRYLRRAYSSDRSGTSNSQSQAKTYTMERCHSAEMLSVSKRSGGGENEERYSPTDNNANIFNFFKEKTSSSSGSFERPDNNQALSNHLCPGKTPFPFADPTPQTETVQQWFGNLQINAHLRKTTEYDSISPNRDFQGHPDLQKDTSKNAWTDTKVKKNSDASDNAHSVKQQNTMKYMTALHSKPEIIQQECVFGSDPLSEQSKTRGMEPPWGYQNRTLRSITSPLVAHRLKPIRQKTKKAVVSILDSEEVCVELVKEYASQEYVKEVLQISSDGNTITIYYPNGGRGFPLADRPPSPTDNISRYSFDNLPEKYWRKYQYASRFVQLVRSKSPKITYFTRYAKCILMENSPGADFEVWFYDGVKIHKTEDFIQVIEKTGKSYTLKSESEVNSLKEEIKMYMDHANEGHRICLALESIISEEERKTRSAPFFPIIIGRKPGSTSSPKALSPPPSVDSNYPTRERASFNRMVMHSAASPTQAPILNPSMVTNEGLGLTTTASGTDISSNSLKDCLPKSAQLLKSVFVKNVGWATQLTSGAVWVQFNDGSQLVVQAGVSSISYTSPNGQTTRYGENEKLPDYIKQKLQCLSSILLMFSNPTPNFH
Method in brief: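 PLK4 at 1.0 nM in HEPES pH 7.5 buffer with 10 mM MgCl2, 1 mM EGTA, 1 mM DTT, preincubated 15 min at RT with compound. ADP formed quantified by ADP-Glo luminescence after ATP depletion. IC50 from four-parameter non-linear regression.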

CHP134 = CHP134 CellTiter-Glo (CTG) Assay; format: cell-based; details: Homo sapiens, CHP-134, 120 h; viable cells by CellTiter-Glo after 5 days
Method in brief: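 CHP134 cells were seeded at 200 cells/well for 16 h, then treated in quadruplicate with nine-point 1:3 serial dilutions at 37 °C, 5% CO2. Viable cells were read by CellTiter-Glo luminescence after 5 days, and IC50 values were derived from the dose-response curves.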

[1] = target: T2, human recombinant Aurora B (Homo sapiens, UniProt Q96GD4); test: Aurora B Kinase Biochemical Assay (ADP-Glo); details: selectivity ratio; Aurora B 10 nM, 114 μM ATP
T2 construct: purchased ThermoFisher PR9210B
T2 sequence (Q96GD4 whole entry): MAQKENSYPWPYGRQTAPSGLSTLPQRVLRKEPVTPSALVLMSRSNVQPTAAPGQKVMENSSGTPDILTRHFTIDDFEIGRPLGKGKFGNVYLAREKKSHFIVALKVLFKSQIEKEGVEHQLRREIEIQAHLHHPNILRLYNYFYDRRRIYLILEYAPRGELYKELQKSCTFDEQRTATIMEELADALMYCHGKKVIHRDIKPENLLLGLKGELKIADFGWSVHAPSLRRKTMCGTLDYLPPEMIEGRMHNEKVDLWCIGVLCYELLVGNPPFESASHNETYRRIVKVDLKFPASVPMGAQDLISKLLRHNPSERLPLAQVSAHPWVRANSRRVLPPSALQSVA
Method in brief: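 Aurora B (10 nM) was pre-incubated with compound for 15 min, then reacted with 114 μM ATP and 4.7 μM MBP for 2 h at RT in 50 mM HEPES pH 7.5, 10 mM MgCl2, 1 mM DTT. ADP was read by ADP-Glo luminescence, and IC50 values came from four-parameter fits of 11-point, 3-fold titrations in duplicate.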

| Structure (SMILES) | IC50 (human recombinant PLK4) [nM] | IC50 (CHP134) [nM] | [Aurora B IC50 (nM)]/[PLK4 IC50 (nM)] [1] |
| --- | --- | --- | --- |
| COc1ccc2c(c1)[C@]1(C[C@H]1c1ccc3c(Nc4cc(-c5ncco5)ccc4OC)n[nH]c3c1)C(=O)N2 [Example 13, (1R,2S)-5′-methoxy-2-{3-[2-methoxy-5-(1,3-oxazol-2-yl)anilino]-1H-indazol-6-yl}spiro[cyclopropane-1,3′-indol]-2′(1′H)-one] | 0.65 | 348 | 1120.7692 |
| COc1ccc2c(c1)[C@]1(C[C@H]1c1ccc3c(Nc4cc(-c5nccs5)ccc4OC)n[nH]c3c1)C(=O)N2 [Example 14, (1R,2S)-5′-methoxy-2-{3-[2-methoxy-5-(1,3-thiazol-2-yl)anilino]-1H-indazol-6-yl}spiro[cyclopropane-1,3′-indol]-2′(1′H)-one] | 0.639 | 88.7 | 897.1830 |
| COc1ccc2c(c1)[C@]1(C[C@H]1c1ccc3c(Nc4ccc(-c5nnn(C)n5)cc4OC)n[nH]c3c1)C(=O)N2 [Example 17, (1R,2S)-5′-methoxy-2-{3-[2-methoxy-4-(2-methyl-2H-tetrazol-5-yl)anilino]-1H-indazol-6-yl}spiro[cyclopropane-1,3′-indol]-2′(1′H)-one] | 2 | 370 | 190 |
| COc1ccc2c(c1)[C@]1(C[C@H]1c1ccc3c(Nc4cc(-c5cnco5)ccc4OC)n[nH]c3c1)C(=O)N2 [Example 18, (1R,2S)-5′-methoxy-2-{3-[2-methoxy-5-(1,3-oxazol-5-yl)anilino]-1H-indazol-6-yl}spiro[cyclopropane-1,3′-indol]-2′(1′H)-one] | 0.71 | 170 | 520 |
| CCOc1ccc(-c2cnn(C)c2)cc1Nc1n[nH]c2cc([C@@H]3C[C@@]34C(=O)Nc3ccc(OC)cc34)ccc12 [Example 37, (1R,2S)-2-{3-[2-ethoxy-5-(1-methyl-1H-pyrazol-4-yl)anilino]-1H-indazol-6-yl}-5′-methoxyspiro[cyclopropane-1,3′-indol]-2′(1′H)-one] | 1.8 | 442 | 27839.6436 |
| COc1ccc2c(c1)[C@]1(C[C@H]1c1ccc3c(Nc4nc(-c5ncco5)cnc4OC)n[nH]c3c1)C(=O)N2 [Example 19, (1R,2S)-5′-methoxy-2-(3-{[3-methoxy-6-(1,3-oxazol-2-yl)pyrazin-2-yl]amino}-1H-indazol-6-yl)spiro[cyclopropane-1,3′-indol]-2′(1′H)-one] | 0.99 | 170 | 460 |
| CCOc1cc(-c2cnccn2)ccc1Nc1n[nH]c2cc([C@@H]3C[C@@]34C(=O)Nc3ccc(OC)cc34)ccc12 [Example 7, (1R,2S)-2-{3-[2-ethoxy-4-(pyrazin-2-yl)anilino]-1H-indazol-6-yl}-5′-methoxyspiro[cyclopropane-1,3′-indol]-2′(1′H)-one] | 1.71 | 166 | 702.6392 |
| COc1ccc2c(c1)[C@]1(C[C@H]1c1ccc3c(Nc4nc(-c5cnco5)ncc4OC)n[nH]c3c1)C(=O)N2 [Example 40, (1R,2S)-5′-methoxy-2-(3-{[5-methoxy-2-(1,3-oxazol-5-yl)pyrimidin-4-yl]amino}-1H-indazol-6-yl)spiro[cyclopropane-1,3′-indol]-2′(1′H)-one] | 0.28 | 237 | 410.7334 |
| COc1ccc2c(c1)[C@]1(C[C@H]1c1ccc3c(Nc4cc(-c5cnn(C)c5)cnc4OC)n[nH]c3c1)C(=O)N2 [Example 26, (1R,2S)-5′-methoxy-2-(3-{[2-methoxy-5-(1-methyl-1H-pyrazol-4-yl)pyridin-3-yl]amino}-1H-indazol-6-yl)spiro[cyclopropane-1,3′-indol]-2′(1′H)-one] | 0.84 | 171 | 921.6946 |
| COc1ccc2c(c1)[C@]1(C[C@H]1c1ccc3c(Nc4cc(-c5nnn(C)n5)ccc4OC)n[nH]c3c1)C(=O)N2 [Example 21, (1R,2S)-5′-methoxy-2-{3-[2-methoxy-5-(2-methyl-2H-tetrazol-5-yl)anilino]-1H-indazol-6-yl}spiro[cyclopropane-1,3′-indol]-2′(1′H)-one] | 2.6 | 400 | 990 |
| CCOc1cc2ccccc2nc1Nc1n[nH]c2cc([C@@H]3C[C@@]34C(=O)Nc3ccc(OC)cc34)ccc12 [Example 8, (1R,2S)-2-{3-[(3-ethoxyquinolin-2-yl)amino]-1H-indazol-6-yl}-5′-methoxyspiro[cyclopropane-1,3′-indol]-2′(1′H)-one] | 1.83 | 490 | 1829.1347 |
| CCOc1ncc(-c2nccs2)cc1Nc1n[nH]c2cc([C@@H]3C[C@@]34C(=O)Nc3ccc(OC)cc34)ccc12 [Example 41, (1R,2S)-2-(3-{[2-ethoxy-5-(1,3-thiazol-2-yl)pyridin-3-yl]amino}-1H-indazol-6-yl)-5′-methoxyspiro[cyclopropane-1,3′-indol]-2′(1′H)-one] | 0.722 | 131 | 8707.7562 |
| CCOc1cnc(-c2nccs2)nc1Nc1n[nH]c2cc([C@@H]3C[C@@]34C(=O)Nc3ccc(OC)cc34)ccc12 [Example 44, (1R,2S)-2-(3-{[5-ethoxy-2-(1,3-thiazol-2-yl)pyrimidin-4-yl]amino}-1H-indazol-6-yl)-5′-methoxyspiro[cyclopropane-1,3′-indol]-2′(1′H)-one] | 0.16 | 22 | 844.375 |
| CCOc1ccc(-c2nccs2)nc1Nc1n[nH]c2cc([C@@H]3C[C@@]34C(=O)Nc3ccc(OC)cc34)ccc12 [Example 28, (1R,2S)-2-(3-{[3-ethoxy-6-(1,3-thiazol-2-yl)pyridin-2-yl]amino}-1H-indazol-6-yl)-5′-methoxyspiro[cyclopropane-1,3′-indol]-2′(1′H)-one] | 0.341 | 16.7 | 1526.5629 |
| COc1ccc2c(c1)[C@]1(C[C@H]1c1ccc3c(Nc4cc5c(cc4OC)S(=O)(=O)C=C5)n[nH]c3c1)C(=O)N2 [Example 6, 6-methoxy-5-({6-[(1R,2S)-5′-methoxy-2′-oxo-1′,2′-dihydrospiro[cyclopropane-1,3′-indol]-2-yl]-1H-indazol-3-yl}amino)-1H-1-benzothiophene-1,1-dione] | 0.952 | 39.4 | 427.6412 |
| COc1ccc2c(c1)[C@]1(C[C@H]1c1ccc3c(Nc4cc(-c5cnn(C)c5)ccc4OC)n[nH]c3c1)C(=O)N2 [Example 11, (1R,2S)-5′-methoxy-2-{3-[2-methoxy-5-(1-methyl-1H-pyrazol-4-yl)anilino]-1H-indazol-6-yl}spiro[cyclopropane-1,3′-indol]-2′(1′H)-one] | 0.52 | 110 | 1051.5384 |
| COc1ccc2c(c1)[C@]1(C[C@H]1c1ccc3c(Nc4cc(-c5cnn(CC(F)F)c5)ccc4OC)n[nH]c3c1)C(=O)N2 [Example 39, (1R,2S)-2-(3-{5-[1-(2,2-difluoroethyl)-1H-pyrazol-4-yl]-2-methoxyanilino}-1H-indazol-6-yl)-5′-methoxyspiro[cyclopropane-1,3′-indol]-2′(1′H)-one] | 1.93 | 202 | 764.1 |
| COc1ccc2c(c1)[C@]1(C[C@H]1c1ccc3c(Nc4cc(-c5cocn5)cnc4OC)n[nH]c3c1)C(=O)N2 [Example 42, (1R,2S)-5′-methoxy-2-(3-{[2-methoxy-5-(1,3-oxazol-4-yl)pyridin-3-yl]amino}-1H-indazol-6-yl)spiro[cyclopropane-1,3′-indol]-2′(1′H)-one] | 1.31 | 281 | 465.6990 |
